From patent US9102752B2, “Peptide vaccine for prevention and immunotherapy of dementia of the Alzheimer's type” (United Biomedical, Inc., priority 2013, dated 2015)

Legend:
[1] = tested on: anti-Aβ antibodies in macaque antisera; assay: Specificity analysis (10-mer peptide ELISA) of antisera from Cynomolgus macaques; assay type: binding
[2] = tested on: anti-Aβ antibodies in sera of vaccinated patients; assay: Epitope mapping, competitive binding inhibition EIA with patient sera (10-mer peptides, IC50); parameters: species or system human; Epitope mapping, fine specificity analysis, serum of subject P210: unit not given here; details: for Epitope mapping, fine specificity analysis, serum of subject P101: serum 16 wpi of vaccinated patient P101; for Epitope mapping, fine specificity analysis, serum of subject P102: serum 16 wpi of vaccinated patient P102; for Epitope mapping, fine specificity analysis, serum of subject P103: serum 16 wpi of vaccinated patient P103; for Epitope mapping, fine specificity analysis, serum of subject P104: serum 16 wpi of vaccinated patient P104; for Epitope mapping, fine specificity analysis, serum of subject P105: serum 16 wpi of vaccinated patient P105; for Epitope mapping, fine specificity analysis, serum of subject P106: serum 16 wpi of vaccinated patient P106; for Epitope mapping, fine specificity analysis, serum of subject P107: serum 16 wpi of vaccinated patient P107; for Epitope mapping, fine specificity analysis, serum of subject P108: serum 16 wpi of vaccinated patient P108; for Epitope mapping, fine specificity analysis, serum of subject P109: serum 16 wpi of vaccinated patient P109; for Epitope mapping, fine specificity analysis, serum of subject P201: serum 16 wpi of vaccinated patient P201; for Epitope mapping, fine specificity analysis, serum of subject P202: serum 16 wpi of vaccinated patient P202; for Epitope mapping, fine specificity analysis, serum of subject P203: serum 16 wpi of vaccinated patient P203; for Epitope mapping, fine specificity analysis, serum of subject P204: serum 16 wpi of vaccinated patient P204; for Epitope mapping, fine specificity analysis, serum of subject P205: serum 16 wpi of vaccinated patient P205; for Epitope mapping, fine specificity analysis, serum of subject P206: serum 16 wpi of vaccinated patient P206; for Epitope mapping, fine specificity analysis, serum of subject P207: serum 16 wpi of vaccinated patient P207; for Epitope mapping, fine specificity analysis, serum of subject P208: serum 16 wpi of vaccinated patient P208; for Epitope mapping, fine specificity analysis, serum of subject P209: serum 16 wpi of vaccinated patient P209; for Epitope mapping, fine specificity analysis, serum of subject P210: serum 16 wpi of vaccinated patient P210
[3] = antisera of macaques given UBI AD Vaccine 150 μg/dose, 9 WPI
[4] = antisera of macaques given UBI AD Vaccine 150 μg/dose, 15 WPI
[5] = antisera of macaques given UBI AD Vaccine 750 μg/dose, 9 WPI
[6] = antisera of macaques given UBI AD Vaccine 750 μg/dose, 15 WPI

Q: Which “Reactivity of antisera with peptide (specificity analysis ELISA)” value (“Reactivity of antisera with peptide” for short) [1, 3] does the source give for “13 (EVKMDAEFRH; PROPEP (1)..(10) Abeta -4-6 or APP 770(E668-H677); listed as Homo sapiens) [compound 13]” here?
A: 0.046

Q: And the “Reactivity of antisera with peptide” value [1, 4]?
A: 0.047

Q: And the “Reactivity of antisera with peptide” value [1, 5]?
A: 0.054

Q: And the “Reactivity of antisera with peptide” value [1, 6]?
A: 0.047

Q: And the “Epitope mapping, fine specificity analysis, serum of subject P101” value (“Epitope mapping … of subject P101” below) [2]?
A: 1

Q: And the “Epitope mapping, fine specificity analysis, serum of subject P102” value (“Epitope mapping … of subject P102” for short) [2]?
A: 0

Q: What about the “Epitope mapping, fine specificity analysis, serum of subject P103” value (from here on “Epitope mapping … of subject P103”) [2] of the same substance?
A: 0

Q: What about the “Epitope mapping, fine specificity analysis, serum of subject P104” value (from here on “Epitope mapping … of subject P104”) [2] of the same substance?
A: 0

Q: What about the “Epitope mapping, fine specificity analysis, serum of subject P105” value (from here on “Epitope mapping … of subject P105”) [2] of the same substance?
A: 0

Q: What about the “Epitope mapping, fine specificity analysis, serum of subject P106” value (from here on “Epitope mapping … of subject P106”) [2] of the same substance?
A: 0

Q: What about the “Epitope mapping, fine specificity analysis, serum of subject P107” value (from here on “Epitope mapping … of subject P107”) [2] of the same substance?
A: 0

Q: What about the “Epitope mapping, fine specificity analysis, serum of subject P108” value (from here on “Epitope mapping … of subject P108”) [2] of the same substance?
A: 0

Q: What about the “Epitope mapping, fine specificity analysis, serum of subject P109” value (from here on “Epitope mapping … of subject P109”) [2] of the same substance?
A: 0

Q: And the “Epitope mapping, fine specificity analysis, serum of subject P201” value (from here on “Epitope mapping … of subject P201”) [2]?
A: 58

Q: What about the “Epitope mapping, fine specificity analysis, serum of subject P202” value (from here on “Epitope mapping … of subject P202”) [2] of the same substance?
A: 0

Q: And the “Epitope mapping, fine specificity analysis, serum of subject P203” value (from here on “Epitope mapping … of subject P203”) [2]?
A: 0

Q: What about the “Epitope mapping, fine specificity analysis, serum of subject P204” value (from here on “Epitope mapping … of subject P204”) [2] of the same substance?
A: 0

Q: And the “Epitope mapping, fine specificity analysis, serum of subject P205” value (from here on “Epitope mapping … of subject P205”) [2]?
A: 0

Q: What about the “Epitope mapping, fine specificity analysis, serum of subject P206” value (from here on “Epitope mapping … of subject P206”) [2] of the same substance?
A: 0

Q: What about the “Epitope mapping, fine specificity analysis, serum of subject P207” value (from here on “Epitope mapping … of subject P207”) [2] of the same substance?
A: 1

Q: And the “Epitope mapping, fine specificity analysis, serum of subject P208” value (from here on “Epitope mapping … of subject P208”) [2]?
A: 0

Q: What about the “Epitope mapping, fine specificity analysis, serum of subject P209” value (from here on “Epitope mapping … of subject P209”) [2] of the same substance?
A: 0

Q: What about the “Epitope mapping, fine specificity analysis, serum of subject P210” value (from here on “Epitope mapping … of subject P210”) [2] of the same substance?
A: 0

Q: For “14 (VKMDAEFRHD; PEPTIDE (1)..(10) Abeta -3-7 or APP 770(V669-D678); listed as Homo sapiens) [compound 14]”, which “Reactivity of antisera with peptide” value [1, 3] is on record?
A: 0.068

Q: What about the “Reactivity of antisera with peptide” value [1, 4] of the same substance?
A: 0.053

Q: And the “Reactivity of antisera with peptide” value [1, 5]?
A: 0.061

Q: What about the “Reactivity of antisera with peptide” value [1, 6] of the same substance?
A: 0.054

Q: What about the “Epitope mapping … of subject P101” value [2] of the same substance?
A: 31

Q: What about the “Epitope mapping … of subject P102” value [2] of the same substance?
A: 0

Q: And the “Epitope mapping … of subject P103” value [2]?
A: 0

Q: What about the “Epitope mapping … of subject P104” value [2] of the same substance?
A: 0

Q: And the “Epitope mapping … of subject P105” value [2]?
A: 0

Q: What about the “Epitope mapping … of subject P106” value [2] of the same substance?
A: 0

Q: What about the “Epitope mapping … of subject P107” value [2] of the same substance?
A: 0

Q: And the “Epitope mapping … of subject P108” value [2]?
A: 0

Q: And the “Epitope mapping … of subject P109” value [2]?
A: 0

Q: And the “Epitope mapping … of subject P201” value [2]?
A: 0

Q: And the “Epitope mapping … of subject P202” value [2]?
A: 0

Q: And the “Epitope mapping … of subject P203” value [2]?
A: 0

Q: And the “Epitope mapping … of subject P204” value [2]?
A: 1

Q: And the “Epitope mapping … of subject P205” value [2]?
A: 0

Q: And the “Epitope mapping … of subject P206” value [2]?
A: 0

Q: What about the “Epitope mapping … of subject P207” value [2] of the same substance?
A: 0

Q: What about the “Epitope mapping … of subject P208” value [2] of the same substance?
A: 0

Q: What about the “Epitope mapping … of subject P209” value [2] of the same substance?
A: 0

Q: What about the “Epitope mapping … of subject P210” value [2] of the same substance?
A: 13

Q: Which “Reactivity of antisera with peptide” value [1, 3] does the source give for “15 (KMDAEFRHDS; PEPTIDE (1)..(10) Abeta -2-8 or APP 770(K670-S679); listed as Homo sapiens) [compound 15]” here?
A: 0.065

Q: And the “Reactivity of antisera with peptide” value [1, 4]?
A: 0.031

Q: What about the “Reactivity of antisera with peptide” value [1, 5] of the same substance?
A: 0.069

Q: And the “Reactivity of antisera with peptide” value [1, 6]?
A: 0.062

Q: And the “Epitope mapping … of subject P101” value [2]?
A: 94

Q: And the “Epitope mapping … of subject P102” value [2]?
A: 0

Q: What about the “Epitope mapping … of subject P103” value [2] of the same substance?
A: 0

Q: What about the “Epitope mapping … of subject P104” value [2] of the same substance?
A: 0

Q: And the “Epitope mapping … of subject P105” value [2]?
A: 0

Q: And the “Epitope mapping … of subject P106” value [2]?
A: 0

Q: What about the “Epitope mapping … of subject P107” value [2] of the same substance?
A: 0

Q: And the “Epitope mapping … of subject P108” value [2]?
A: 0

Q: What about the “Epitope mapping … of subject P109” value [2] of the same substance?
A: 0

Q: And the “Epitope mapping … of subject P201” value [2]?
A: 2

Q: And the “Epitope mapping … of subject P202” value [2]?
A: 7

Q: And the “Epitope mapping … of subject P203” value [2]?
A: 0

Q: What about the “Epitope mapping … of subject P204” value [2] of the same substance?
A: 12

Q: And the “Epitope mapping … of subject P205” value [2]?
A: 0

Q: And the “Epitope mapping … of subject P206” value [2]?
A: 0

Q: What about the “Epitope mapping … of subject P207” value [2] of the same substance?
A: 0

Q: And the “Epitope mapping … of subject P208” value [2]?
A: 0

Q: And the “Epitope mapping … of subject P209” value [2]?
A: 0

Q: What about the “Epitope mapping … of subject P210” value [2] of the same substance?
A: 52

Q: Which results are given for “16 (MDAEFRHDSG; PEPTIDE (1)..(10) Abeta -1-9 or APP 770(M671-G680); listed as Homo sapiens) [compound 16]”?
A: Reactivity of antisera with peptide (specificity analysis ELISA) [1, 3]: 0.056; Reactivity of antisera with peptide (specificity analysis ELISA) [1, 4]: 0.061; Reactivity of antisera with peptide (specificity analysis ELISA) [1, 5]: 0.051; Reactivity of antisera with peptide (specificity analysis ELISA) [1, 6]: 0.056; Epitope mapping, fine specificity analysis, serum of subject P101 [2]: 420; Epitope mapping, fine specificity analysis, serum of subject P102 [2]: 12; Epitope mapping, fine specificity analysis, serum of subject P103 [2]: 0; Epitope mapping, fine specificity analysis, serum of subject P104 [2]: 0; Epitope mapping, fine specificity analysis, serum of subject P105 [2]: 0; Epitope mapping, fine specificity analysis, serum of subject P106 [2]: 0; Epitope mapping, fine specificity analysis, serum of subject P107 [2]: 0; Epitope mapping, fine specificity analysis, serum of subject P108 [2]: 0; Epitope mapping, fine specificity analysis, serum of subject P109 [2]: 0; Epitope mapping, fine specificity analysis, serum of subject P201 [2]: 9; Epitope mapping, fine specificity analysis, serum of subject P202 [2]: 116; Epitope mapping, fine specificity analysis, serum of subject P203 [2]: 0; Epitope mapping, fine specificity analysis, serum of subject P204 [2]: 17; Epitope mapping, fine specificity analysis, serum of subject P205 [2]: 0; Epitope mapping, fine specificity analysis, serum of subject P206 [2]: 0; Epitope mapping, fine specificity analysis, serum of subject P207 [2]: 2; Epitope mapping, fine specificity analysis, serum of subject P208 [2]: 6; Epitope mapping, fine specificity analysis, serum of subject P209 [2]: 0; Epitope mapping, fine specificity analysis, serum of subject P210 [2]: 121

Q: What does the source list for “17 (AEFRHDSGYE; PEPTIDE (1)..(10) Abeta 2-11 or APP 770(A673-E682); listed as Homo sapiens) [compound 17]”?
A: Reactivity of antisera with peptide (specificity analysis ELISA) [1, 3]: 0.058; Reactivity of antisera with peptide (specificity analysis ELISA) [1, 4]: 0.059; Reactivity of antisera with peptide (specificity analysis ELISA) [1, 5]: 0.054; Reactivity of antisera with peptide (specificity analysis ELISA) [1, 6]: 0.060; Epitope mapping, fine specificity analysis, serum of subject P101 [2]: 2; Epitope mapping, fine specificity analysis, serum of subject P102 [2]: 0; Epitope mapping, fine specificity analysis, serum of subject P103 [2]: 0; Epitope mapping, fine specificity analysis, serum of subject P104 [2]: 0; Epitope mapping, fine specificity analysis, serum of subject P105 [2]: 0; Epitope mapping, fine specificity analysis, serum of subject P106 [2]: 0; Epitope mapping, fine specificity analysis, serum of subject P107 [2]: 0; Epitope mapping, fine specificity analysis, serum of subject P108 [2]: 0; Epitope mapping, fine specificity analysis, serum of subject P109 [2]: 0; Epitope mapping, fine specificity analysis, serum of subject P201 [2]: 3; Epitope mapping, fine specificity analysis, serum of subject P202 [2]: 0; Epitope mapping, fine specificity analysis, serum of subject P203 [2]: 0; Epitope mapping, fine specificity analysis, serum of subject P204 [2]: 0; Epitope mapping, fine specificity analysis, serum of subject P205 [2]: 0; Epitope mapping, fine specificity analysis, serum of subject P206 [2]: 0; Epitope mapping, fine specificity analysis, serum of subject P207 [2]: 0; Epitope mapping, fine specificity analysis, serum of subject P208 [2]: 0; Epitope mapping, fine specificity analysis, serum of subject P209 [2]: 0; Epitope mapping, fine specificity analysis, serum of subject P210 [2]: 0
